For one assay, the target named is T1, human V2 receptor (Homo sapiens, UniProt P30518).
T1 construct: Galpha16 (possible fusion partner; the text says either independent or a fusion gene); expressed in transfected cells; host or cells: CHO K1 (constitutively expressing modified aequorin, co-transfected with Gα16)
Kind of assay: Cellular in vitro assay for vasopressin receptor activity (aequorin luminescence), hV2. The class given is cell-based. Conditions: CHO cell line transfected with the human V2 receptor and Gα16, agonist [Arg8]-vasopressin. The text has this:
(§1) B-1. Cellular In Vitro Assay for Determining the Vasopressin Receptor Activity
(§2) The identification of agonists and antagonists of the V1a and V2 vasopressin receptors from humans and rats and also the quantification of the activity of the substances described here took place using recombinant cell lines. These cells derive originally from a hamster ovary epithelial cell (Chinese Hamster Ovary, CHO K1, ATCC: American Type Culture Collection, Manassas, Va. 20108, USA). The test cell lines constitutively express a modified form of the calcium-sensitive photoprotein aequorin, which, after reconstitution with the cofactor coelenterazine, emits light when there are increases in the free calcium concentration (Rizzuto R., Simpson A. W., Brini M., Pozzan T.; Nature 358 (1992) 325-327). In addition, the cells are stably transfected with the human or rat V1a or V2 receptors. In the case of the Gs-coupling V2 receptors, the cells are stably transfected with a further gene, which codes for the promiscuous Gα16 protein (Amatruda T. T., Steele D. A., Slepak V. Z., Simon M. I., Proc. Nat. Acad. Sci. USA 88 (1991), 5587-5591), either independently or as a fusion gene. The resulting vasopressin receptor test cells react to stimulation of the recombinantly expressed vasopressin receptors by intracellular release of calcium ions, which can be quantified by the resulting aequorin luminescence using a suitable luminometer (Milligan G., Marshall F., Rees S., Trends in Pharmaco. Sci. 17 (1996) 235-237).
(§3) Test procedure: On the day before the assay, the cells are plated out in culture medium (DMEM, 10% FCS, 2 mM glutamine, 10 mM HEPES) in 384-well microtiter plates and kept in a cell incubator (96% humidity, 5% v/v carbon dioxide, 37° C.). On the day of the assay, the culture medium is replaced by a Tyrode solution (140 mM sodium chloride, 5 mM potassium chloride, 1 mM magnesium chloride, 2 mM calcium chloride, 20 mM glucose, 20 mM HEPES), which additionally contains the cofactor coelenterazine (50 μM), and the microtiter plate is then incubated for a further 3-4 hours. The test substances in various concentrations are placed for 10 to 20 minutes in the wells of the microtiter plate before the agonist [Arg8]-vasopressin is added, and the resulting light signal is measured immediately in the luminometer. The IC50 values are calculated using the GraphPad PRISM computer program (Version 3.02).
(§4) The table below lists representative IC50 values for the compounds of the invention on the cell line transfected with the human V1a or V2 receptor: […]

A further assay addresses T2, human V1a receptor (Homo sapiens, UniProt P37288).
T2 construct: expressed in transfected cells; host or cells: CHO K1 (constitutively expressing modified aequorin)
Kind of assay: Cellular in vitro assay for vasopressin receptor activity (aequorin luminescence), hV1a. The class given is cell-based. Conditions: CHO cell line transfected with the human V1a receptor, agonist [Arg8]-vasopressin.
Description: as §1, §2, §3, §4

pIC50: −log10 of the molar value.

For four compounds, IC50 results are on record in patent US20120208852A1, “Heterocyclic-substituted 2-acetamido-5-aryl-1,2,4-triazolones and use thereof” (BAYER PHARMA AKTIENGESELLSCHAFT, priority 2009, published 2012).

What is called pIC50 is the IC50 on a negative log10 scale, so that one unit is a factor of ten.

T2 sequence (P37288 whole entry): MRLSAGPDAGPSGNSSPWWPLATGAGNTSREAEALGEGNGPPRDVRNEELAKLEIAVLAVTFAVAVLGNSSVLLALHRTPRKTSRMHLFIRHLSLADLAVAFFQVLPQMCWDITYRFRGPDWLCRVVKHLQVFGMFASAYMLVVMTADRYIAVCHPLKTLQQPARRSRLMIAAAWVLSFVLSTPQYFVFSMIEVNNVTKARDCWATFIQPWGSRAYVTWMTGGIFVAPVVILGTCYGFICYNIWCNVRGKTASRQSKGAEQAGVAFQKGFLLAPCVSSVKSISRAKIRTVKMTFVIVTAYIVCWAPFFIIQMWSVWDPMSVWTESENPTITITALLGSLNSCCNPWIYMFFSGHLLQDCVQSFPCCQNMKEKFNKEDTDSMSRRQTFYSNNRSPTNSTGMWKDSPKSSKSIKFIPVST
T1 sequence (P30518 whole entry, the tested form may be a part): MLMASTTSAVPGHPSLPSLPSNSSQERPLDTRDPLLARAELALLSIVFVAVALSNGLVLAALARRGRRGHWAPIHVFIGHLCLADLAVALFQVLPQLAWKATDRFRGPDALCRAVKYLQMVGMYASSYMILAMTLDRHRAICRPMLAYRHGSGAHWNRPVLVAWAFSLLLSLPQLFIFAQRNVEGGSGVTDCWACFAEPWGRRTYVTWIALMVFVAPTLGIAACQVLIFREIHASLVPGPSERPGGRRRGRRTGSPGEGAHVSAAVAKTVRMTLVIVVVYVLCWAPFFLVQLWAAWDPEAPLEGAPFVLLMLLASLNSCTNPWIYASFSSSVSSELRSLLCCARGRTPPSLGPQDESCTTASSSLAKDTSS

With `COc1cccc(C(NC(=O)Cn2nc(-c3ccc(Cl)cc3)n(C[C@H](O)C(F)(F)F)c2=O)c2cccc(C(F)(F)F)c2)n1` (single isomer, unassigned) [Example 18], the figures for the pIC50 at human V2 receptor and on human V1a receptor were 7.04 and 7.49, respectively.

Consider `COc1cccc(C(NC(=O)Cn2nc(-c3ccc(Cl)cc3)n(C[C@H](O)C(F)(F)F)c2=O)c2cccc(C(F)(F)F)c2)n1` (single isomer, unassigned) [Example 19], for which the pIC50 at human V2 receptor was 8.15; on human V1a receptor, 8.34.

On to `Cc1noc([C@](C)(NC(=O)Cn2nc(-c3ccc(Cl)cc3)n(C[C@H](O)C(F)(F)F)c2=O)c2cccc(C(F)(F)F)c2)n1` [Example 3, 2-{3-(4-Chlorophenyl)-5-oxo-4-[(2S)-3,3,3-trifluoro-2-hydroxypropyl]-4,5-dihydro-1H-1,2,4-triazol-1-yl}-N-{(1R)-1-(3-methyl-1,2,4-oxadiazol-5-yl)-1-[3-(trifluoro-methyl)phenyl]ethyl}acetamide], for which the pIC50 was 8.49 on human V2 receptor and 8.19 at human V1a receptor.

In the case of `C[C@@](NC(=O)Cn1nc(-c2ccc(Cl)cc2)n(C[C@H](O)C(F)(F)F)c1=O)(c1cccc(C(F)(F)F)c1)c1nnn[nH]1` [Example 4, 2-{3-(4-Chlorophenyl)-5-oxo-4-[(2S)-3,3,3-trifluoro-2-hydroxypropyl]-4,5-dihydro-1H-1,2,4-triazol-1-yl}-N-{(1R)-1-(1H-tetrazol-5-yl)-1-[3-(trifluoromethyl)phenyl]ethyl}acetamide], the results for the pIC50 on human V2 receptor and on human V1a receptor were 8.48 and 8.08, respectively.
